Data taken from publication PMC8944975, “Secretin Receptor as a Target in Gastrointestinal Cancer: Expression Analysis and Ligand Development” (Biomedicines, 2022).
Where a SMILES comes first, the peptide text is derived from it. [ ]: non-standard residue; d: D form.

Target: human SCTR (Homo sapiens, UniProt P47872)
Assay: β-arr2-GFP translocation assay run in antagonist mode; as to IC50, inhibition of β-arr2-GFP translocation (Table 3): peptide 5 min at 37 °C
Format: cell-based
Parameters: expressed in transfected cells; host or cells: U2OS (human osteosarcoma), stably co-transfected with β-arrestin2-GFP
Details: read-out: IC50, inhibition of β-arr2-GFP translocation (Table 2)
Description: U2OS-SCTR/β-arr2-GFP: human osteosarcoma cell line U2OS (purchased from ATCC/LGC Standards, Wesel, Germany) were stably transfected with plasmids encoding SCTR (Homo sapiens) and the fusion protein β-arrestin2-green fluorescent protein (GFP) (Rattus norvegicus-Aequorea victoria) (β-arr2-GFP).
For analysis of antagonistic effects on SCTR, a slightly modified protocol of the β-arr2-GFP translocation was used. […] For analysis, cells were terminally fixed and permeabilized as previously described. The additional monitoring of IDCC fluorescence in the near-infrared channel (667 nm) provided another measure for receptor binding and activation.

Sequence of human SCTR (P47872 23-440): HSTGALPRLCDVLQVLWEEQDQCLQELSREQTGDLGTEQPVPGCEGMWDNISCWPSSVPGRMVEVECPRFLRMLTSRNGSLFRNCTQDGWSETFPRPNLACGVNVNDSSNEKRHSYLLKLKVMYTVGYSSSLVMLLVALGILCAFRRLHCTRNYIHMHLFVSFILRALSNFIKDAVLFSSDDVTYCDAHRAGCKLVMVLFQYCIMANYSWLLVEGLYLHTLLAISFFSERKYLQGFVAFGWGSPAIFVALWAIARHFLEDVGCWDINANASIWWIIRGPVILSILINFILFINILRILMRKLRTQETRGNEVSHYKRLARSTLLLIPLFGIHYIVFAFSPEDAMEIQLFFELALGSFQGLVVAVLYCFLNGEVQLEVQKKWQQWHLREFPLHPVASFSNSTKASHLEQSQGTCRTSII

`CC(C)C[C@H](NC(=O)CNC(=O)[C@H](CCC(N)=O)NC(=O)[C@H](CC(C)C)NC(=O)[C@H](CC(C)C)NC(=O)[C@H](CCCNC(=N)N)NC(=O)[C@H](CCC(N)=O)NC(=O)[C@H](CC(C)C)NC(=O)[C@H](CCCNC(=N)N)NC(=O)[C@H](C)NC(=O)CNC(=O)[C@H](CCC(=O)O)NC(=O)[C@H](CCCNC(=N)N)NC(=O)[C@H](CC(C)C)NC(=O)[C@H](CCCNC(=N)N)NC(=O)[C@H](CO)NC(=O)[C@H](CC(C)C)NC(=O)[C@H](CCC(=O)O)NC(=O)[C@H](CO)NC(=O)[C@@H](NC(=O)[C@@H](N)Cc1ccccc1)[C@@H](C)O)C(=O)N[C@H](C(=O)O)C(C)C` [Peptide 119] was tested, and the IC50 was 2340 ± 366 nM.

Same assay, conditions: read-out: IC50, inhibition of β-arr2-GFP translocation (Table 3)

`CC(C)C[C@H](NC(=O)CNC(=O)[C@H](CCC(N)=O)NC(=O)[C@H](CC(C)C)NC(=O)[C@H](CC(C)C)NC(=O)[C@H](CCCNC(=N)N)NC(=O)[C@H](CCC(N)=O)NC(=O)[C@H](CC(C)C)NC(=O)[C@H](CCCNC(=N)N)NC(=O)[C@H](C)NC(=O)CNC(=O)[C@H](CCC(=O)O)NC(=O)[C@H](CCCNC(=N)N)NC(=O)[C@H](CC(C)C)NC(=O)[C@H](CCCNC(=N)N)NC(=O)[C@H](CO)NC(=O)[C@H](CC(C)C)NC(=O)[C@H](CCC(=O)O)NC(=O)[C@H](CO)NC(=O)[C@@H](NC(=O)[C@H](Cc1ccccc1)NC(=O)[C@H](N)CCCNC(=N)N)[C@@H](C)O)C(=O)N[C@H](C(=O)O)C(C)C` [Peptide 125] and `CC(C)C[C@H](NC(=O)CNC(=O)[C@H](CCC(N)=O)NC(=O)[C@H](CC(C)C)NC(=O)[C@H](CC(C)C)NC(=O)[C@H](CCCNC(=N)N)NC(=O)[C@H](CCC(N)=O)NC(=O)[C@H](CC(C)C)NC(=O)[C@H](CCCNC(=N)N)NC(=O)[C@H](C)NC(=O)CNC(=O)[C@H](CCC(=O)O)NC(=O)[C@H](CCCNC(=N)N)NC(=O)[C@H](CC(C)C)NC(=O)[C@H](CCCNC(=N)N)NC(=O)[C@H](CO)NC(=O)[C@H](CC(C)C)NC(=O)[C@H](CCC(=O)O)NC(=O)[C@H](CO)NC(=O)[C@@H](NC(=O)[C@H](Cc1ccccc1)NC(=O)[C@@H](N)CCCNC(=N)N)[C@@H](C)O)C(=O)N[C@H](C(=O)O)C(C)C` [Peptide 124] are within error of each other in IC50: 1360 ± 322 nM for the first, 924 ± 237 nM for the second.

`CC(C)C[C@H](NC(=O)CNC(=O)[C@H](CCC(N)=O)NC(=O)[C@H](CC(C)C)NC(=O)[C@H](CC(C)C)NC(=O)[C@H](CCCNC(=N)N)NC(=O)[C@H](CCC(N)=O)NC(=O)[C@H](CC(C)C)NC(=O)[C@H](C)NC(=O)[C@H](C)NC(=O)CNC(=O)[C@H](CCC(=O)O)NC(=O)[C@H](CCCNC(=N)N)NC(=O)[C@H](CC(C)C)NC(=O)[C@H](CCCNC(=N)N)NC(=O)[C@H](CO)NC(=O)[C@H](CC(C)C)NC(=O)[C@H](CCC(=O)O)NC(=O)[C@H](CO)NC(=O)[C@@H](NC(=O)[C@H](Cc1ccccc1)NC(=O)[C@H](N)CCCNC(=N)N)[C@@H](C)O)C(=O)N[C@H](C(=O)O)C(C)C` [Peptide 137] (H-[dR]FTSELSRLREGAALQRLLQGLV-OH) and `CC(C)C[C@H](NC(=O)CNC(=O)[C@H](CCC(N)=O)NC(=O)[C@H](CC(C)C)NC(=O)[C@H](CC(C)C)NC(=O)[C@H](CCCNC(=N)N)NC(=O)[C@H](CCC(N)=O)NC(=O)[C@H](CC(C)C)NC(=O)[C@H](CCCNC(=N)N)NC(=O)[C@H](C)NC(=O)CNC(=O)[C@H](CCC(=O)O)NC(=O)[C@H](CCCNC(=N)N)NC(=O)[C@H](CC(C)C)NC(=O)[C@H](C)NC(=O)[C@H](CO)NC(=O)[C@H](CC(C)C)NC(=O)[C@H](CCC(=O)O)NC(=O)[C@H](CO)NC(=O)[C@@H](NC(=O)[C@H](Cc1ccccc1)NC(=O)[C@H](N)CCCNC(=N)N)[C@@H](C)O)C(=O)N[C@H](C(=O)O)C(C)C` [Peptide 132] (H-[dR]FTSELSALREGARLQRLLQGLV-OH) are within error of each other in IC50: 1860 ± 159 nM for the first, 2480 ± 579 nM for the second.

`CC(C)C[C@H](NC(=O)CNC(=O)[C@H](CCC(N)=O)NC(=O)[C@H](CC(C)C)NC(=O)[C@H](CC(C)C)NC(=O)[C@H](CCCNC(=N)N)NC(=O)[C@H](CCC(N)=O)NC(=O)[C@H](CC(C)C)NC(=O)[C@H](CCCNC(=N)N)NC(=O)[C@H](C)NC(=O)CNC(=O)[C@H](CCC(=O)O)NC(=O)[C@H](CCCNC(=N)N)NC(=O)[C@H](CC(C)C)NC(=O)[C@H](CCCNC(=N)N)NC(=O)[C@H](CO)NC(=O)[C@H](CC(C)C)NC(=O)[C@H](C)NC(=O)[C@H](CO)NC(=O)[C@@H](NC(=O)[C@H](Cc1ccccc1)NC(=O)[C@H](N)CCCNC(=N)N)[C@@H](C)O)C(=O)N[C@H](C(=O)O)C(C)C` [Peptide 129] (H-[dR]FTSALSRLREGARLQRLLQGLV-OH) and `CC(C)C[C@H](NC(=O)CNC(=O)[C@H](CCC(N)=O)NC(=O)[C@H](CC(C)C)NC(=O)[C@H](CC(C)C)NC(=O)[C@H](CCCNC(=N)N)NC(=O)[C@H](C)NC(=O)[C@H](CC(C)C)NC(=O)[C@H](CCCNC(=N)N)NC(=O)[C@H](C)NC(=O)CNC(=O)[C@H](CCC(=O)O)NC(=O)[C@H](CCCNC(=N)N)NC(=O)[C@H](CC(C)C)NC(=O)[C@H](CCCNC(=N)N)NC(=O)[C@H](CO)NC(=O)[C@H](CC(C)C)NC(=O)[C@H](CCC(=O)O)NC(=O)[C@H](CO)NC(=O)[C@@H](NC(=O)[C@H](Cc1ccccc1)NC(=O)[C@H](N)CCCNC(=N)N)[C@@H](C)O)C(=O)N[C@H](C(=O)O)C(C)C` [Peptide 139] (H-[dR]FTSELSRLREGARLARLLQGLV-OH) are within error of each other in IC50: 1140 ± 281 nM for the first, 1020 ± 107 nM for the second.

Going from `CC(C)C[C@H](NC(=O)CNC(=O)[C@H](CCC(N)=O)NC(=O)[C@H](CC(C)C)NC(=O)[C@H](CC(C)C)NC(=O)[C@H](CCCNC(=N)N)NC(=O)[C@H](CCC(N)=O)NC(=O)[C@H](CC(C)C)NC(=O)[C@H](CCCNC(=N)N)NC(=O)[C@H](C)NC(=O)CNC(=O)[C@H](CCC(=O)O)NC(=O)[C@H](CCCNC(=N)N)NC(=O)[C@H](CC(C)C)NC(=O)[C@H](CCCNC(=N)N)NC(=O)[C@H](CO)NC(=O)[C@H](CC(C)C)NC(=O)[C@H](CCC(=O)O)NC(=O)[C@H](CO)NC(=O)[C@H](C)NC(=O)[C@H](Cc1ccccc1)NC(=O)[C@H](N)CCCNC(=N)N)C(=O)N[C@H](C(=O)O)C(C)C` [Peptide 127] to `CC(C)C[C@H](NC(=O)CNC(=O)[C@H](CCC(N)=O)NC(=O)[C@H](CC(C)C)NC(=O)[C@H](CC(C)C)NC(=O)[C@H](CCCNC(=N)N)NC(=O)[C@H](CCC(N)=O)NC(=O)[C@H](CC(C)C)NC(=O)[C@H](CCCNC(=N)N)NC(=O)[C@H](C)NC(=O)CNC(=O)[C@H](CCC(=O)O)NC(=O)[C@H](CCCNC(=N)N)NC(=O)[C@H](CC(C)C)NC(=O)[C@H](CCCNC(=N)N)NC(=O)[C@H](CO)NC(=O)[C@H](CC(C)C)NC(=O)[C@H](CCC(=O)O)NC(=O)[C@H](C)NC(=O)[C@@H](NC(=O)[C@H](Cc1ccccc1)NC(=O)[C@H](N)CCCNC(=N)N)[C@@H](C)O)C(=O)N[C@H](C(=O)O)C(C)C` [Peptide 128] (H-[dR]FTAELSRLREGARLQRLLQGLV-OH), the IC50 falls from 1610 ± 185 nM to 897 ± 108 nM (1.8-fold). The second is the more potent here.

`CC(C)C[C@H](NC(=O)CNC(=O)[C@H](CCC(N)=O)NC(=O)[C@H](CC(C)C)NC(=O)[C@H](CC(C)C)NC(=O)[C@H](CCCNC(=N)N)NC(=O)[C@H](CCC(N)=O)NC(=O)[C@H](CC(C)C)NC(=O)[C@H](CCCNC(=N)N)NC(=O)[C@H](C)NC(=O)CNC(=O)[C@H](CCC(=O)O)NC(=O)[C@H](CCCNC(=N)N)NC(=O)[C@H](CC(C)C)NC(=O)[C@H](CCCNC(=N)N)NC(=O)[C@H](C)NC(=O)[C@H](CC(C)C)NC(=O)[C@H](CCC(=O)O)NC(=O)[C@H](CO)NC(=O)[C@@H](NC(=O)[C@H](Cc1ccccc1)NC(=O)[C@H](N)CCCNC(=N)N)[C@@H](C)O)C(=O)N[C@H](C(=O)O)C(C)C` [Peptide 131] (H-[dR]FTSELARLREGARLQRLLQGLV-OH) and `CC(C)C[C@H](NC(=O)CNC(=O)[C@H](CCC(N)=O)NC(=O)[C@H](CC(C)C)NC(=O)[C@H](CC(C)C)NC(=O)[C@H](C)NC(=O)[C@H](CCC(N)=O)NC(=O)[C@H](CC(C)C)NC(=O)[C@H](CCCNC(=N)N)NC(=O)[C@H](C)NC(=O)CNC(=O)[C@H](CCC(=O)O)NC(=O)[C@H](CCCNC(=N)N)NC(=O)[C@H](CC(C)C)NC(=O)[C@H](CCCNC(=N)N)NC(=O)[C@H](CO)NC(=O)[C@H](CC(C)C)NC(=O)[C@H](CCC(=O)O)NC(=O)[C@H](CO)NC(=O)[C@@H](NC(=O)[C@H](Cc1ccccc1)NC(=O)[C@H](N)CCCNC(=N)N)[C@@H](C)O)C(=O)N[C@H](C(=O)O)C(C)C` [Peptide 140] (H-[dR]FTSELSRLREGARLQALLQGLV-OH) are within 1.5-fold of each other in IC50: 998 ± 142 nM for the first, 1490 ± 218 nM for the second.

`CC(C)C[C@H](NC(=O)CNC(=O)[C@H](CCC(N)=O)NC(=O)[C@H](CC(C)C)NC(=O)[C@H](CC(C)C)NC(=O)[C@H](CCCNC(=N)N)NC(=O)[C@H](CCC(N)=O)NC(=O)[C@H](CC(C)C)NC(=O)[C@H](CCCNC(=N)N)NC(=O)[C@H](C)NC(=O)CNC(=O)[C@H](CCC(=O)O)NC(=O)[C@H](C)NC(=O)[C@H](CC(C)C)NC(=O)[C@H](CCCNC(=N)N)NC(=O)[C@H](CO)NC(=O)[C@H](CC(C)C)NC(=O)[C@H](CCC(=O)O)NC(=O)[C@H](CO)NC(=O)[C@@H](NC(=O)[C@H](Cc1ccccc1)NC(=O)[C@H](N)CCCNC(=N)N)[C@@H](C)O)C(=O)N[C@H](C(=O)O)C(C)C` [Peptide 134] (H-[dR]FTSELSRLAEGARLQRLLQGLV-OH) and `CC(C)C[C@H](NC(=O)CNC(=O)[C@H](CCC(N)=O)NC(=O)[C@H](CC(C)C)NC(=O)[C@H](CC(C)C)NC(=O)[C@H](CCCNC(=N)N)NC(=O)[C@H](CCC(N)=O)NC(=O)[C@H](CC(C)C)NC(=O)[C@H](CCCNC(=N)N)NC(=O)[C@H](C)NC(=O)CNC(=O)[C@H](CCC(=O)O)NC(=O)[C@H](CCCNC(=N)N)NC(=O)[C@H](CC(C)C)NC(=O)[C@H](CCCNC(=N)N)NC(=O)[C@H](CO)NC(=O)[C@H](CC(C)C)NC(=O)[C@H](CCC(=O)O)NC(=O)[C@H](CO)NC(=O)[C@@H](NC(=O)[C@H](C)NC(=O)[C@H](N)CCCNC(=N)N)[C@@H](C)O)C(=O)N[C@H](C(=O)O)C(C)C` [Peptide 126] are within error of each other in IC50: 1580 ± 77 nM for the first, 1760 ± 322 nM for the second.
